# Measured values from PubChem BioAssay AID1918930 (Molecular Pharmacology Branch, DTP, NCI, 2023).
# Several values for one entry are separate records, joined by “and”; a condition that tells them apart may be missing. Equal entries are not always repeated.
# Tested on: 233499-124-R-J3-PDC complex spheroid viability, % test/control
# Experiment: Anticancer human tumor 233499-124-R-J3-PDC patient-derived colon adenocarcinoma cell line growth inhibition
# Conditions: for viability, T/C: stronger effect = lower value
# Method in brief: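 Multicellular complex spheroids of tumor cells with human endothelial cells (HUVEC) and mesenchymal stem cells; the LSD1 inhibitor iadademstat was combined with standard-of-care or investigational agents. Top concentration at or near clinical Cmax, half-log dilutions; final DMSO ≤0.25%.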
# [1] = curve of first compound, second compound 0.1 µM
# [2] = curve of first compound, second compound 0.316 µM
# [3] = curve of first compound, second compound 1 µM
# [4] = curve of first compound, second compound 3.16 µM
# [5] = curve of first compound, second compound 10 µM
# [6] = second compound 0.1 µM, first compound 0.000949 µM
# [7] = second compound 0.1 µM, first compound 0.003 µM
# [8] = second compound 0.1 µM, first compound 0.00949 µM
# [9] = second compound 0.1 µM, first compound 0.03 µM
# [10] = second compound 0.1 µM, first compound 0.0949 µM
# [11] = second compound 0.1 µM, first compound 0.3 µM
# [12] = second compound 0.316 µM, first compound 0.000949 µM
# [13] = second compound 0.316 µM, first compound 0.003 µM
# [14] = second compound 0.316 µM, first compound 0.00949 µM
# [15] = second compound 0.316 µM, first compound 0.03 µM
# [16] = second compound 0.316 µM, first compound 0.0949 µM
# [17] = second compound 0.316 µM, first compound 0.3 µM
# [18] = second compound 1 µM, first compound 0.000949 µM
# [19] = second compound 1 µM, first compound 0.003 µM
# [20] = second compound 1 µM, first compound 0.00949 µM
# [21] = second compound 1 µM, first compound 0.03 µM
# [22] = second compound 1 µM, first compound 0.0949 µM
# [23] = second compound 1 µM, first compound 0.3 µM
# [24] = second compound 3.16 µM, first compound 0.000949 µM
# [25] = second compound 3.16 µM, first compound 0.003 µM
# [26] = second compound 3.16 µM, first compound 0.00949 µM
# [27] = second compound 3.16 µM, first compound 0.03 µM
# [28] = second compound 3.16 µM, first compound 0.0949 µM
# [29] = second compound 3.16 µM, first compound 0.3 µM
# [30] = second compound 10 µM, first compound 0.000949 µM
# [31] = second compound 10 µM, first compound 0.003 µM
# [32] = second compound 10 µM, first compound 0.00949 µM
# [33] = second compound 10 µM, first compound 0.03 µM
# [34] = second compound 10 µM, first compound 0.0949 µM
# [35] = second compound 10 µM, first compound 0.3 µM
# 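Further: spheroids exposed to agents for one week before readout.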
smiles,measurement,setting,value
Nc1ncn(C2CC(O)C(CO)S2)c(=O)n1 (configuration not stated) + NC1CCC(NC2CC2c2ccccc2)CC1,IC50,[1],123 nM
same,IC50,[2],76.1 nM
same,IC50,[3],56.9 nM
same,IC50,[4],73.9 nM
same,IC50,[5],63.2 nM
same,"viability, T/C",[6],110%
same,"viability, T/C",[7],85.6%
same,"viability, T/C",[8],113%
same,"viability, T/C",[9],88.1%
same,"viability, T/C",[10],61.4%
same,"viability, T/C",[11],13.1%
same,"viability, T/C",[12],113%
same,"viability, T/C",[13],107%
same,"viability, T/C",[14],117%
same,"viability, T/C",[15],93.9%
same,"viability, T/C",[16],39.7%
same,"viability, T/C",[17],11.6%
same,"viability, T/C",[18],94.3%
same,"viability, T/C",[19],88.6%
same,"viability, T/C",[20],91.2%
same,"viability, T/C",[21],76.8%
same,"viability, T/C",[22],28.6%
same,"viability, T/C",[23],27.4%
same,"viability, T/C",[24],97.4%
same,"viability, T/C",[25],99.9%
same,"viability, T/C",[26],92%
same,"viability, T/C",[27],89%
same,"viability, T/C",[28],39.2%
same,"viability, T/C",[29],24.9%
same,"viability, T/C",[30],86.6%
same,"viability, T/C",[31],82.4%
same,"viability, T/C",[32],86.8%
same,"viability, T/C",[33],82.8%
same,"viability, T/C",[34],32.1%
same,"viability, T/C",[35],23.6%
Cn1ncnc1C1c2n[nH]c(=O)c3cc(F)cc(c23)NC1c1ccc(F)cc1 (configuration not stated) + NC1CCC(NC2CC2c2ccccc2)CC1,IC50,[1],> 100 nM
same,IC50,[2],> 100 nM
same,IC50,[3],> 100 nM
same,IC50,[4],> 100 nM
same,IC50,[5],> 100 nM
same,"viability, T/C","second compound 0.1 µM, first compound 0.000316 µM",103%
same,"viability, T/C","second compound 0.1 µM, first compound 0.001 µM",99.2%
same,"viability, T/C","second compound 0.1 µM, first compound 0.00316 µM",94.4%
same,"viability, T/C","second compound 0.1 µM, first compound 0.01 µM",104%
same,"viability, T/C","second compound 0.1 µM, first compound 0.0316 µM",96.3%
same,"viability, T/C","second compound 0.1 µM, first compound 0.1 µM",77.8%
same,"viability, T/C","second compound 0.316 µM, first compound 0.000316 µM",113%
same,"viability, T/C","second compound 0.316 µM, first compound 0.001 µM",110%
same,"viability, T/C","second compound 0.316 µM, first compound 0.00316 µM",100%
same,"viability, T/C","second compound 0.316 µM, first compound 0.01 µM",102%
same,"viability, T/C","second compound 0.316 µM, first compound 0.0316 µM",106%
same,"viability, T/C","second compound 0.316 µM, first compound 0.1 µM",110%
same,"viability, T/C","second compound 1 µM, first compound 0.000316 µM",83.8%
same,"viability, T/C","second compound 1 µM, first compound 0.001 µM",87.1%
same,"viability, T/C","second compound 1 µM, first compound 0.00316 µM",78.1%
same,"viability, T/C","second compound 1 µM, first compound 0.01 µM",87.5%
same,"viability, T/C","second compound 1 µM, first compound 0.0316 µM",70.7%
same,"viability, T/C","second compound 1 µM, first compound 0.1 µM",97%
same,"viability, T/C","second compound 3.16 µM, first compound 0.000316 µM",83%
same,"viability, T/C","second compound 3.16 µM, first compound 0.001 µM",85.7%
same,"viability, T/C","second compound 3.16 µM, first compound 0.00316 µM",83.6%
same,"viability, T/C","second compound 3.16 µM, first compound 0.01 µM",81.6%
same,"viability, T/C","second compound 3.16 µM, first compound 0.0316 µM",76.1%
same,"viability, T/C","second compound 3.16 µM, first compound 0.1 µM",79.1%
same,"viability, T/C","second compound 10 µM, first compound 0.000316 µM",75.7%
same,"viability, T/C","second compound 10 µM, first compound 0.001 µM",73.4%
same,"viability, T/C","second compound 10 µM, first compound 0.00316 µM",73.4%
same,"viability, T/C","second compound 10 µM, first compound 0.01 µM",80.9%
same,"viability, T/C","second compound 10 µM, first compound 0.0316 µM",65.1%
same,"viability, T/C","second compound 10 µM, first compound 0.1 µM",68.5%
CCc1c2c(nc3ccc(O)cc13)-c1cc3c(c(=O)n1C2)COC(=O)[C@]3(O)CC + NC1CCC(NC2CC2c2ccccc2)CC1,IC50,[1],25 nM
same,IC50,[2],27.5 nM
same,IC50,[3],29.4 nM
same,IC50,[4],37.1 nM
same,IC50,[5],40.5 nM
same,"viability, T/C",[6],80.5%
same,"viability, T/C",[7],99.5%
same,"viability, T/C",[8],89.6%
same,"viability, T/C",[9],42.6%
same,"viability, T/C",[10],19.8%
same,"viability, T/C",[11],20.4%
same,"viability, T/C",[12],99.6%
same,"viability, T/C",[13],92.2%
same,"viability, T/C",[14],107%
same,"viability, T/C",[15],46%
same,"viability, T/C",[16],28.6%
same,"viability, T/C",[17],12.8%
same,"viability, T/C",[18],72.6%
same,"viability, T/C",[19],89.5%
same,"viability, T/C",[20],95.6%
same,"viability, T/C",[21],49.3%
same,"viability, T/C",[22],16.8%
same,"viability, T/C",[23],13.2%
same,"viability, T/C",[24],90.8%
same,"viability, T/C",[25],92.1%
same,"viability, T/C",[26],99.7%
same,"viability, T/C",[27],56%
same,"viability, T/C",[28],28.5%
same,"viability, T/C",[29],18.2%
same,"viability, T/C",[30],72.3%
same,"viability, T/C",[31],78.3%
same,"viability, T/C",[32],93.2%
same,"viability, T/C",[33],58.8%
same,"viability, T/C",[34],27.1%
same,"viability, T/C",[35],22.9%
CCc1c2c(nc3ccc(O)cc13)-c1cc3c(c(=O)n1C2)COC(=O)[C@]3(O)CC,"viability, T/C",compound 0.000949 µM,91.8% and 92.6%
same,"viability, T/C",compound 0.003 µM,106% and 117%
same,"viability, T/C",compound 0.00949 µM,101% and 94%
same,"viability, T/C",compound 0.03 µM,47.5% and 33.5%
same,"viability, T/C",compound 0.0949 µM,16.6% and 32.4%
same,"viability, T/C",compound 0.3 µM,26.7% and 28.5%
same,IC50,curve of compound,28.4 nM and 21.8 nM
